In US12258337B2, “Bicyclic CX3CR1 receptor agonists” (Board of Regents, The University of Texas System, priority 2019, dated 2025):

Experiments:
hCX3CR1 [1] = molecular target: T1, hCX3CR1 (Homo sapiens, UniProt P49238); experiment: Suchi5 assay (HEK/NatClytin/CNG/Suchi5 transiently transfected hCX3CR1, Fluo-8 Ca2+ readout); format: cell-based; design: expressed in transfected cells; stably expresses a Ca2+ sensitive photo-protein; conditions: Suchi5 assay, HEK/NatClytin/CNG/Suchi5 transfected with hCX3CR1; read-out: hCX3CR1 agonism EC50
T1 sequence (P49238 1-355): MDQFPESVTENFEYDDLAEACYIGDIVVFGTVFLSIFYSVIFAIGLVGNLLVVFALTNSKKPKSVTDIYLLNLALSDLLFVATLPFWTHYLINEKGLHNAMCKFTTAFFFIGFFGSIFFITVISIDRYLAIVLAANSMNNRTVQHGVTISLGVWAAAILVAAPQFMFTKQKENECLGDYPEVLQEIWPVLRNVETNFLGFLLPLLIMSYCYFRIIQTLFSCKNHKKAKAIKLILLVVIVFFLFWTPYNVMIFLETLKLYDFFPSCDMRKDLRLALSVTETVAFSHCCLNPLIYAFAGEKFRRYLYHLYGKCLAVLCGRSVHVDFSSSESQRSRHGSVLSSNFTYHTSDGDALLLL
In short: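 HEK/NatClytin/CNG cells overexpressing Gαiq chimera Suchi5, transiently transfected with hCX3CR1, seeded 24 h before assay. Cells loaded 1 h at RT with 0.5X Fluo-8 in Tyrode buffer (pH 7.4); compounds injected on FLIPR and Ca2+ kinetic fluorescence followed for 90 s. Agonist: recombinant human fractalkine (CX3CL1).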

hCX3CR1 [2] = molecular target: T1, hCX3CR1; experiment: ChAMPion assay (CHO ChAMPion/CX3CR1 K1.6, cAMP/CNG channel, photoprotein luminescence); format: cell-based; design: expressed in transfected cells; stably expresses a Ca2+ sensitive photo-protein; conditions: ChAMPion assay, CHO ChAMPion/CX3CR1 K1.6, Forskolin 3 μM; read-out: hCX3CR1 agonism EC50

EC50 (hCX3CR1 [1]) [µM]	EC50 (hCX3CR1 [2]) [µM]	SMILES
11.8	0.7	O=C(NCC1(CN2CCC(O)C2)CCCC1)c1cc2c(s1)CCCCCC2 (racemic) [Example 25, N-[[1-[(3-hydroxypyrrolidin-1-yl)methyl]cyclopentyl]methyl]-4,5,6,7,8,9-hexahydrocycloocta[b]thiophene-2-carboxamide]
13.9	2.1	CC(C)(CNC(=O)c1cc2c(s1)CCCCCC2)CN1CCCC1 [Example 1, N-(2,2-dimethyl-3-pyrrolidin-1-ylpropyl)-4,5,6,7,8,9-hexahydrocycloocta[b]thiophene-2-carboxamide]
5.4	1.3	CN(C)CC1(CNC(=O)c2cc3c(s2)CCCCCC3)CCCC1 [Example 2, N-[[1-[(dimethylamino)methyl]cyclopentyl]methyl]-4,5,6,7,8,9-hexahydrocycloocta[b]thiophene-2-carboxamide]
12.9	1.8	O=C(NCC1(CN2CCCC2)CCCC1)c1cc2c(s1)CCCCCC2 [Example 5, N-[[1-(pyrrolidin-1-ylmethyl)cyclopentyl]methyl]-4,5,6,7,8,9-hexahydrocycloocta[b]thiophene-2-carboxamide]
9.6	2.2	CC(C)(CNC(=O)c1cc2c(s1)CCCCCC2)CN1CCCCC1 [Example 13, N-(2,2-dimethyl-3-piperidin-1-ylpropyl)-4,5,6,7,8,9-hexahydrocycloocta[b]thiophene-2-carboxamide]
5.5	2.7	O=C(NCC1(CN2CCCCC2)CCCC1)c1cc2c(s1)CCCCCC2 [Example 15, N-[[1-(piperidin-1-ylmethyl)cyclopentyl]methyl]-4,5,6,7,8,9-hexahydrocycloocta[b]thiophene-2-carboxamide]
4.7	4.4	O=C(NCC1(CN2CCCC2)CCC1)c1cc2c(s1)CCCCCC2 [Example 21, N-[[1-(pyrrolidin-1-ylmethyl)cyclobutyl]methyl]-4,5,6,7,8,9-hexahydrocycloocta[b]thiophene-2-carboxamide]
6.5	1.4	CN(C)CC1(CNC(=O)c2cc3c(s2)CCCCCC3)CCC1 [Example 23, N-[[1-[(dimethylamino)methyl]cyclobutyl]methyl]-4,5,6,7,8,9-hexahydrocycloocta[b]thiophene-2-carboxamide]
7.5	13.1	O=C(NCC1(CN2CCCC(O)C2)CCCC1)c1cc2c(s1)CCCCCC2 (stereo not shown) [Example 27, N-[[1-[(3-hydroxypiperidin-1-yl)methyl]cyclopentyl]methyl]-4,5,6,7,8,9-hexahydrocycloocta[b]thiophene-2-carboxamide]
6.7	0.79	O=C(NCC1(CN2CCC(O)CC2)CCCC1)c1cc2c(s1)CCCCCC2 [Example 28, N-[[1-[(4-hydroxypiperidin-1-yl)methyl]cyclopentyl]methyl]-4,5,6,7,8,9-hexahydrocycloocta[b]thiophene-2-carboxamide]
36.1	0.6	CN(CCO)CC1(CNC(=O)c2cc3c(s2)CCCCCC3)CCC1 [Example 30, N-[[1-[[2-hydroxyethyl(methyl)amino]methyl]cyclobutyl]methyl]-4,5,6,7,8,9-hexahydrocycloocta[b]thiophene-2-carboxamide]
4.7	0.89	CN(C)CC1(CNC(=O)c2cc3c(s2)CCCCCC3)CC(O)C1 (stereo not shown) [Example 31, N-[[1-[(dimethylamino)methyl]-3-hydroxycyclobutyl]methyl]-4,5,6,7,8,9-hexahydrocycloocta[b]thiophene-2-carboxamide]
5.8	0.64	O=C(NCC1(CN2CCCC2)CC(O)C1)c1cc2c(s1)CCCCCC2 (stereo not shown) [Example 32, N-[[3-hydroxy-1-(pyrrolidin-1-ylmethyl)cyclobutyl]methyl]-4,5,6,7,8,9-hexahydrocycloocta[b]thiophene-2-carboxamide]
9.3	3.1	CN(C)CC(C)(C)CNC(=O)c1cc2c(s1)CCCCCC2 [Example 70, N-[3-(dimethylamino)-2,2-dimethylpropyl]-4,5,6,7,8,9-hexahydrocycloocta[b]thiophene-2-carboxamide]
